Values after ≈ are worked out from the molar mass of the structure shown. Where two headings read alike, the source gives them in different places.
Legend:
[1] = tested on: HBV; assay: Effective concentration mediating 90% inhibition (EC90), system not given; type: cell-based; conditions: Hepatitis B virus; used for comparison with unbound concentrations; cell system not stated
[2] = tested on: HSV-1/HSV-2; assay: Antiviral selectivity panel: HSV-1/HSV-2; type: cell-based, herpes simplex virus-1/herpes simplex virus-2; conditions: MRC5; MRC-5 (human lung)
[3] = target: T1, recombinant human PAPD5 (Homo sapiens, UniProt Q8NDF8); assay: PAPD5 ATP depletion assay; type: biochemical; conditions: 12.5 nM enzyme, 750 nM ATP, 3 h, mean of 3 experiments; read-out: IC50, PAPD5-mediated incorporation of ATP
T1 construct: made in house

[4] = Tolerability in AAV-HBV mice; conditions: once-daily dosing for 14 days
[5] = tested on: RSV; assay: Antiviral selectivity panel: RSV; type: cell-based; conditions: human respiratory syncytial virus, HEp-2; HEp2 (human epithelial)
[6] = tested on: HBsAg with SLα deletion mutant (ΔSLα) PRE; assay: HBV PRE variant phenotyping in Huh-7: ΔSLα plasmid (HBsAg); type: cell-based; conditions: Hepatitis B virus, Huh-7, 120 h, read-out: HBsAg EC50
[7] = tested on: panel of RNA and DNA viruses; assay: Antiviral selectivity against a panel of RNA and DNA viruses (summary); type: cell-based
[8] = tested on: HBsAg expressed from integrated HBV; assay: HBsAg from integrated HBV in PLC/PRF/5 cells; type: cell-based; conditions: Hepatitis B virus, PLC-PRF-5, read-out: HBsAg EC50
[9] = tested on: HBsAg with wildtype HBV PRE; assay: HBV PRE variant phenotyping in Huh-7: wild-type PRE plasmid (HBsAg); type: cell-based; conditions: Hepatitis B virus, Huh-7, 120 h, read-out: HBsAg EC50
[10] = target: T2, recombinant human PAPD7 (Homo sapiens, UniProt Q5XG87); assay: PAPD7 ATP depletion assay; type: biochemical; conditions: 12.5 nM enzyme, 750 nM ATP, 3 h, mean of 3 experiments; read-out: IC50, PAPD7-mediated incorporation of ATP
T2 construct: made in house

[11] = Cytotoxicity in HepG2-hNTCP cells; type: cell-based; conditions: human, HBV-infected HepG2-hNTCP-C4 cells
[12] = tested on: HCV; assay: Antiviral selectivity panel: HCV; type: cell-based; conditions: Hepatitis C virus; Huh-7 (human liver)
[13] = tested on: HBV (AAV-HBV); assay: AAV-HBV mouse model, serum HBsAg; conditions: AAV-HBV mice; for mean reduction of serum HBsAg compared to pre-dose baseline: 14 days
[14] = tested on: HBV pgRNA and preS/S RNA; assay: Northern blot of intracellular HBV RNA in HepG2.2.15 cells; type: cell-based; conditions: Hepatitis B virus, HepG2.2.15, 48 h
[15] = tested on: HBV; assay: HBV life cycle analysis in HepG2.2.15 cells; type: cell-based, hepatitis B virus; conditions: ETV 1 μM, GLS4 1 μM, AB-161 100 nM
[16] = male, C57BL/6J, mouse, in vivo, 24 h
[17] = tested on: HIV; assay: Antiviral selectivity panel: HIV; type: cell-based; conditions: Human immunodeficiency virus 1; CEM-22 (human T lymphoblast)
[18] = tested on: HBV; assay: HBV-infected HepG2-hNTCP antiviral assay; type: cell-based; conditions: Hepatitis B virus, genotype D
[19] = tested on: DENV2; assay: Antiviral selectivity panel: DENV2; type: cell-based, dengue virus type 2; conditions: Dengue virus, DENV2, BHK-21, in Mesocricetus auratus; BHK21 (hamster kidney)
[20] = in vitro; type: in vitro ADME; conditions: monkey, plasma
[21] = tested on: HBV; assay: HBV antiviral assay in HepG2.2.15 cells (HBsAg/HBeAg CLIA, secreted HBV DNA PCR); type: cell-based; conditions: Hepatitis B virus, HepG2.2.15, genotype D
[22] = read-out: HBeAg EC50 (converted)

T2 sequence (Q5XG87 226-558): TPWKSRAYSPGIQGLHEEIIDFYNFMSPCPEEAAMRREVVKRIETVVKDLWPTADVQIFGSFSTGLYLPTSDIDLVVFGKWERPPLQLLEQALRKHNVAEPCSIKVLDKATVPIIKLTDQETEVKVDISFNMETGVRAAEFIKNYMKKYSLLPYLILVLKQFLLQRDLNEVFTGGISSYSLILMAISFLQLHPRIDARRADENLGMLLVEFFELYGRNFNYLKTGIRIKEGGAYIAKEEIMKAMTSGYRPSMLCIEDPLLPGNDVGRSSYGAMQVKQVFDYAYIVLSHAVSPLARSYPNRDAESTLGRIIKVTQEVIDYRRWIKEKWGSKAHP
T1 sequence (Q8NDF8 106-438 limits assumed): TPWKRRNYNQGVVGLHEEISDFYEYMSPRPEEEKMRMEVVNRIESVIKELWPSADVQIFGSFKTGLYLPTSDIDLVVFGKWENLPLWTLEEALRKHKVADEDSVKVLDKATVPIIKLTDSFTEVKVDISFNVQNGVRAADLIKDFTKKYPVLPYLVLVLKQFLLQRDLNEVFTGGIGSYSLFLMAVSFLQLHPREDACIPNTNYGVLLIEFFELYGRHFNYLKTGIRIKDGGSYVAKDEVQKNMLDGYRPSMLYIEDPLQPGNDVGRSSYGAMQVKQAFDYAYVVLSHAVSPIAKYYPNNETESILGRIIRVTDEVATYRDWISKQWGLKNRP

With `COc1cc(OC(F)F)c2nc3c(n2c1)C[C@@H](C(C)(C)C)c1cc(C(=O)O)c(=O)[nH]c1-3` [AB-161] the EC90 [1] was 0.0128 mg/L (≈ 0.0295 µM), the EC50 [2] was > 30 µM and the IC50 [3] was 0.85 µM. For the same compound, the tolerability [4] was “well-tolerated”, the EC50 [5] was > 30 µM and the EC50 [6] was > 0.1 µM. For the same compound, the “selectivity for HBV” value ([7]; HBV vs panel of RNA and DNA viruses) was > 10,000 fold, the “activity against a panel of RNA and DNA viruses” value ([7]; all ten viruses, up to the highest concentration tested at 30 μM) was “inactive” and the EC50 [8] was 0.0059 ± 0.0025 µM. For the same compound, the EC50 [9] was 0.0025 µM, the IC50 [10] was 1.1 µM and the CC50 [11] was > 10 µM. For the same compound, the EC50 [12] was > 30 µM, the “mean reduction of serum HBsAg compared to pre-dose baseline” value (“mean reduction of serum HBsAg” for short) ([13]; 0.3 mg/kg oral QD) was 0.13 log10 and the “mean reduction of serum HBsAg” value ([13]; 1 mg/kg oral QD) was 0.34 log10. For the same compound, the “mean reduction of serum HBsAg” value ([13]; 10 mg/kg oral QD) was 0.71 log10, the “mean reduction of serum HBsAg” value ([13]; 30 mg/kg oral QD) was 0.94 log10 and the “earliest time at which inhibition of serum HBsAg was observed” value ([13]; after initiation of dosing) was 4 days. The “mean maximal reduction of serum HBsAg compared to pre-dose baseline” value ([13]; oral QD 14 days, dose range 0.3 to 30 mg/kg) was 0.94 ± 0.56 log10, the EC50 ([14]; read-out: EC50, steady state level of pgRNA (3.5 kb)) was 0.0069 to 0.021 µM and the EC50 ([14]; read-out: EC50, steady state level of preS/S RNA (2.4/2.1 kb)) was 0.0023 to 0.0069 µM. For the same compound, the “HBV DNA replication” value [15] was “inhibited”, the “intracellular HBV RNA (pgRNA, preS/S RNA)” value [15] was “inhibited” and the “viral proteins: HBV core and capsid assembly” value [15] was “inhibited”. The “fraction unbound AB-161 in plasma (C24h) below its EC90” value [16] was “at least 1 log10”, the EC50 [17] was > 30 µM and the EC50 ([18]; read-out: HBV RNA EC50 (converted)) was 0.0301 µM. The EC50 [18, 22] was 0.0209 µM, the EC50 ([18]; read-out: HBsAg EC50) was 0.0253 ± 0.0109 µM and the EC50 [19] was > 30 µM. It also gave a fraction unbound at 6 h, 500 ng/mL [20] of 0.02, an EC50 ([21]; 144 h, 6-day incubation, read-out: HBsAg EC50) of 0.0023 ± 0.001 µM and an EC50 ([21]; secreted HBV DNA, read-out: HBV DNA EC50 (converted)) of 0.00036 µM. It also gave an EC50 ([21]; with 40% human serum, read-out: HBsAg (40% human serum) EC50 (converted)) of 0.063 µM and an EC50 [21, 22] of 0.0137 µM.

— paper PMC10975527 (Viruses, 2024)
